Results published in patent US20230175069A1, “COMPOSITIONS AND METHODS FOR DETECTING GENE FUSIONS OF ESR1 AND CCDC170 FOR DETERMINING INCREASED RESISTANCE TO ENDOCRINE THERAPY AND FOR CANCER TREATMENT” (UNIVERSITY OF PITTSBURGH-OF THE COMMONWEAL TH SYSTEM OF …, priority 2020, published 2023).
pIC50: −log10 of the molar value.

Legend:
CAMA-1 = assay: Clonogenic assay in fusion-negative CAMA-1 cells; type: cell-based; conditions: Homo sapiens; CAMA-1 (fusion-negative); titrated lapatinib in combination with 0.5 µM tamoxifen, 10 to 13 days; read-out: IC50 (clonogenic viability)
ZR-75-1 cells = assay: Clonogenic assay in ZR-75-1 cells (E2-E6 ESR1-CCDC170 fusion); type: cell-based, human; conditions: for cell viability, concomitant inhibitor compared to endocrine treatment alone: lapatinib 2 µM or dasatinib 0.05 µM with tamoxifen or fulvestrant
Protocol: A) Sensitivity of ZR-75-1 cells to tamoxifen in combination with HER2, SRC, or HER2+SRC inhibitors as measured by clonogenic assays. ZR-75-1 cells were treated with different dosages of 4-OH tamoxifen (µM), or 4-OH tamoxifen plus lapatinib (2 µM), dasatinib (0.05 µM), or lapatinib (2 µM) + dasatinib (0.05 µM). Data were normalized against vehicle treatment alone (as 100%). […] Data were normalized against vehicle treatment alone (as 100%).
Left panel, the representative plate images of clonogenic assays. Right panel, the relative clonogenic viabilities normalized to tamoxifen monotreatment (Means ± SD. of triplicates).
The clonogenic viabilities following the respective treatments were assessed by clonogenic assays.

HCC1428 cells = assay: Clonogenic assay in HCC1428 cells (endogenous E2-E10 ESR1-CCDC170 fusion); type: cell-based, human; conditions: for therapeutic effect when combined with fulvestrant, comparison / therapeutic activity in combination with tamoxifen or fulvestrant, comparison between inhibitors / cell viability, inhibitor in combination with tamoxifen or fulvestrant compared to tamoxifen or fulvestrant alone: lapatinib 2 µM; for therapeutic effect when combined with fulvestrant, comparison: dasatinib 0.05 µM plus fulvestrant; for therapeutic activity in combination with tamoxifen or fulvestrant, comparison between inhibitors: dasatinib 0.05 µM vs BEZ235 8 nM; for therapeutic activity in combination with tamoxifen or fulvestrant, comparison between inhibitors / cell viability, inhibitor in combination with tamoxifen or fulvestrant compared to tamoxifen or fulvestrant alone: AZD8931 1 µM; for cell viability, inhibitor in combination with tamoxifen or fulvestrant compared to tamoxifen or fulvestrant alone: dasatinib 0.05 µM, BEZ235 8 nM
MDA-MB-415 = assay: Clonogenic assay in fusion-negative MDA-MB-415 cells; type: cell-based; conditions: Homo sapiens; MDA-MB-415 (fusion-negative); titrated lapatinib in combination with 0.5 µM tamoxifen, 10 to 13 days; read-out: IC50 (clonogenic viability)
HER2 = conditions: HCC1428 cells

Compound	cell viability, concomitant inhibitor compared to endocrine treatment alone (ZR-75-1 cells)	therapeutic effect when combined with fulvestrant, comparison (HCC1428 cells)	therapeutic activity in combination with tamoxifen or fulvestrant, comparison between inhibitors (HCC1428 cells)	cell viability, inhibitor in combination with tamoxifen or fulvestrant compared to tamoxifen or fulvestrant alone (HCC1428 cells)	also measured
CS(=O)(=O)CCNCc1ccc(-c2ccc3ncnc(Nc4ccc(OCc5cccc(F)c5)c(Cl)c4)c3c2)o1 [lapatinib]	further decreased cell viability	comparable therapeutic effects	better therapeutic activities than BEZ235 or AZD8931	significantly inhibited cell viability	pIC50 (CAMA-1): 5.19; pIC50 (ZR-75-1 cells; Homo sapiens, ZR-75-1 (E2-E6 variant), titrated lapatinib in combination with 0.5 µM tamoxifen, 10 to 13 days, normalized to tamoxifen monotreatment, read-out: IC50 (clonogenic viability)): 6.22; pIC50 (HCC1428 cells; Homo sapiens, HCC1428 (E2-E10 variant), titrated lapatinib in combination with 0.5 µM tamoxifen, 10 to 13 days, normalized to tamoxifen monotreatment, read-out: IC50 (clonogenic viability)): 6.82; pIC50 (MDA-MB-415): 5.40
CC/C(=C(\c1ccccc1)c1ccc(OCCN(C)C)cc1)c1ccccc1 [tamoxifen]					response of cells to endocrine treatment (clonogenic assay) (ZR-75-1 cells; increasing doses of tamoxifen or fulvestrant): responded; cell growth (clonogenic assay), endocrine agent alone (HCC1428 cells; Tam 0.5 µM or Ful 0.1 µM, 72 hours): reduced cell growth efficiently; HER2 protein level (Western blot) (HER2): upregulated
Cc1nc(Nc2ncc(C(=O)Nc3c(C)cccc3Cl)s2)cc(N2CCN(CCO)CC2)n1 [dasatinib]	did not show any significant therapeutic benefit	comparable therapeutic effects	better therapeutic activities than BEZ235 or AZD8931	significantly inhibited cell viability	activity in the presence of tamoxifen, comparison (HCC1428 cells; dasatinib 0.05 µM vs lapatinib 2 µM plus 4-OH tamoxifen): better activity than lapatinib
CNC(=O)CN1CCC(Oc2cc3c(Nc4cccc(Cl)c4F)ncnc3cc2OC)CC1 [AZD8931]				significantly inhibited cell viability	
Cn1c(=O)n(-c2ccc(C(C)(C)C#N)cc2)c2c3cc(-c4cnc5ccccc5c4)ccc3ncc21 [BEZ235]				significantly inhibited cell viability	
